From PubChem BioAssay AID1259407 (Chemical Carcinogenesis Research Information System (CCRIS), 2018)
Active and inactive are the calls of the source. The rule behind the calls is not given here.

Tested on: CCRIS mutagenicity, Ames/micronucleus/aberration tests
Assay: CCRIS mutagenicity studies
[1] = Test System: AMES SALMONELLA TYPHIMURIUM, Strain/Indicator: TA98, Metabolic Activation: NONE, Method: STANDARD PLATE
[2] = Test System: AMES SALMONELLA TYPHIMURIUM, Strain/Indicator: TA100, Metabolic Activation: NONE, Method: STANDARD PLATE
[3] = Test System: AMES SALMONELLA TYPHIMURIUM, Strain/Indicator: TA1535, Metabolic Activation: NONE, Method: STANDARD PLATE

Measured: mutagenic call

CC1(C)C(C(=O)OC(C#N)c2cccc(Oc3ccccc3)c2)C1(C)C (stereo not drawn)
inactive: End Point: In vitro chromasomal aberrations, Test System: Chinese hamster ovary (CHO-K1) cells, Metabolic Activation: None inactive; negative | End Point: In vitro chromasomal aberrations, Test System: Chinese hamster ovary (CHO-K1) cells, Metabolic Activation: Rat, liver, S-9, PCB inactive; negative | [1] inactive; negative | Test System: AMES SALMONELLA TYPHIMURIUM, Strain/Indicator: TA98, Metabolic Activation: S-9, Method: STANDARD PLATE inactive; negative | [2] inactive; negative | Test System: AMES SALMONELLA TYPHIMURIUM, Strain/Indicator: TA100, Metabolic Activation: S-9, Method: STANDARD PLATE inactive; negative | [3] inactive; negative | Test System: AMES SALMONELLA TYPHIMURIUM, Strain/Indicator: TA1535, Metabolic Activation: S-9, Method: STANDARD PLATE inactive; negative | Test System: AMES SALMONELLA TYPHIMURIUM, Strain/Indicator: TA1537, Metabolic Activation: NONE, Method: STANDARD PLATE inactive; negative | Test System: AMES SALMONELLA TYPHIMURIUM, Strain/Indicator: TA1537, Metabolic Activation: S-9, Method: STANDARD PLATE inactive; negative | Test System: Ames Salmonella typhimurium, Strain/Indicator: TA98, Metabolic Activation: Rat, Liver, S-9, Kanechlor-400, Method: Preincubation inactive; negative | Test System: Ames Salmonella typhimurium, Strain/Indicator: TA100, Metabolic Activation: Rat, Liver, S-9, Kanechlor-400, Method: Preincubation inactive; negative | Test System: Ames Salmonella typhimurium, Strain/Indicator: TA1535, Metabolic Activation: Rat, Liver, S-9, Kanechlor-400, Method: Preincubation inactive; negative | Test System: Ames Salmonella typhimurium, Strain/Indicator: TA1537, Metabolic Activation: Rat, Liver, S-9, Kanechlor-400, Method: Preincubation inactive; negative | Test System: Ames Salmonella typhimurium, Strain/Indicator: TA1538, Metabolic Activation: Rat, Liver, S-9, Kanechlor-400, Method: Preincubation inactive; negative | Test System: E. coli, Strain/Indicator: WP2uvrA, Metabolic Activation: Rat, Liver, S-9, Kanechlor-400, Method: Preincubation inactive; negative

CC(C)(COCC1CO1)COCC1CO1 (stereo not drawn)
active: Test System: AMES SALMONELLA TYPHIMURIUM, Strain/Indicator: TA100, Metabolic Activation: HAMSTER, LIVER, S-9, AROCLOR 1254 (10%), Method: PREINCUBATION active; positive | Test System: AMES SALMONELLA TYPHIMURIUM, Strain/Indicator: TA100, Metabolic Activation: NONE, Method: PREINCUBATION active; positive | Test System: AMES SALMONELLA TYPHIMURIUM, Strain/Indicator: TA100, Metabolic Activation: RAT, LIVER, S-9, AROCLOR 1254 (10%), Method: PREINCUBATION active; positive | Test System: AMES SALMONELLA TYPHIMURIUM, Strain/Indicator: TA1535, Metabolic Activation: HAMSTER, LIVER, S-9, AROCLOR 1254 (10%), Method: PREINCUBATION active; positive | Test System: AMES SALMONELLA TYPHIMURIUM, Strain/Indicator: TA1535, Metabolic Activation: NONE, Method: PREINCUBATION active; positive | Test System: AMES SALMONELLA TYPHIMURIUM, Strain/Indicator: TA1535, Metabolic Activation: RAT, LIVER, S-9, AROCLOR 1254 (10%), Method: PREINCUBATION active; positive

O[C@@H]1C=CC=C[C@H]1O
inactive: Test System: AMES SALMONELLA TYPHIMURIUM, Strain/Indicator: TA97, Metabolic Activation: NONE, Method: STANDARD PLATE inactive; negative | [1] inactive; negative | Test System: AMES SALMONELLA TYPHIMURIUM, Strain/Indicator: TA98, Metabolic Activation: RAT, LIVER, S-9, AROCLOR 1254, Method: STANDARD PLATE inactive; negative | [2] inactive; negative | [3] inactive; negative | Test System: CHINESE HAMSTER V-79, Strain/Indicator: V-79/6-THIOGUANINE, Metabolic Activation: NONE inactive; negative
active: Test System: AMES SALMONELLA TYPHIMURIUM, Strain/Indicator: TA1535, Metabolic Activation: RAT, LIVER, S-9, AROCLOR 1254, Method: STANDARD PLATE active; positive

O=[N+]([O-])c1ccc2ccc3ccc([N+](=O)[O-])cc3c2c1
active: Test System: AMES SALMONELLA TYPHIMURIUM, Strain/Indicator: TA98(1,8-DNP6), Metabolic Activation: NONE, Method: STANDARD PLATE active; positive | Test System: AMES SALMONELLA TYPHIMURIUM, Strain/Indicator: TA98(NR), Metabolic Activation: NONE, Method: STANDARD PLATE active; positive | [1] active; positive | [2] active; positive | Test System: AMES SALMONELLA TYPHIMURIUM, Strain/Indicator: YG1021, Metabolic Activation: NONE, Method: STANDARD PLATE active; positive | Test System: AMES SALMONELLA TYPHIMURIUM, Strain/Indicator: YG1024, Metabolic Activation: NONE, Method: STANDARD PLATE active; positive | Test System: AMES SALMONELLA TYPHIMURIUM, Strain/Indicator: YG1026, Metabolic Activation: NONE, Method: STANDARD PLATE active; positive | Test System: AMES SALMONELLA TYPHIMURIUM, Strain/Indicator: YG1029, Metabolic Activation: NONE, Method: STANDARD PLATE active; positive

O=C1NC(=O)C(Cl)=C1Cl
active: [2] active; positive

C[n+]1ccc(-c2ccccn2)cc1
inactive: Test System: AMES SALMONELLA TYPHIMURIUM, Strain/Indicator: TA97, Metabolic Activation: RAT, LIVER, S-9, PHENOBARBITAL, Method: STANDARD PLATE inactive; negative | Test System: AMES SALMONELLA TYPHIMURIUM, Strain/Indicator: TA100, Metabolic Activation: RAT, LIVER, S-9, PHENOBARBITAL, Method: STANDARD PLATE inactive; negative | Test System: AMES SALMONELLA TYPHIMURIUM, Strain/Indicator: TA1535, Metabolic Activation: RAT, LIVER, S-9, PHENOBARBITAL, Method: STANDARD PLATE inactive; negative | Test System: AMES SALMONELLA TYPHIMURIUM, Strain/Indicator: TA1537, Metabolic Activation: RAT, LIVER, S-9, PHENOBARBITAL, Method: STANDARD PLATE inactive; negative | Test System: AMES SALMONELLA TYPHIMURIUM, Strain/Indicator: TA1538, Metabolic Activation: RAT, LIVER, S-9, PHENOBARBITAL, Method: STANDARD PLATE inactive; negative
active: Test System: AMES SALMONELLA TYPHIMURIUM, Strain/Indicator: TA98, Metabolic Activation: RAT, LIVER, S-9, PHENOBARBITAL, Method: STANDARD PLATE active; positive

Cc1cc(N)c(C)c2c1[nH]c1ccc(O)cc12
active: Test System: AMES SALMONELLA TYPHIMURIUM, Strain/Indicator: TA98, Metabolic Activation: RAT LIVER S-9, AROCLOR 1254, Method: STANDARD PLATE active; positive
inactive: [1] inactive; negative | [2] inactive; negative | Test System: AMES SALMONELLA TYPHIMURIUM, Strain/Indicator: TA100, Metabolic Activation: RAT LIVER S-9, AROCLOR 1254, Method: STANDARD PLATE inactive; negative
